Experimental data: patent publication US8822449B2, “Substituted aminoindanes and analogs thereof, and the pharmaceutical use thereof” (Sanofi, priority 2008, dated 2014)

The molecules below were run against T1, sodium-proton exchanger of subtype 3 (NHE3) (Homo sapiens, UniProt P48764) (assay: Recovery of intracellular pH (pHi) after acidification in LAP1 cells stably expressing NHE3 (BCECF fluorescence, FLIPR)). Details: LAP1 cells stably expressing NHE3; pH recovery after acidification; range 1 is % inhibition at 10 μM; read-out: Activity range (inhibitory effect on NHE3).
T1 construct: expressed in transfected cells
T1 sequence (P48764 26-834): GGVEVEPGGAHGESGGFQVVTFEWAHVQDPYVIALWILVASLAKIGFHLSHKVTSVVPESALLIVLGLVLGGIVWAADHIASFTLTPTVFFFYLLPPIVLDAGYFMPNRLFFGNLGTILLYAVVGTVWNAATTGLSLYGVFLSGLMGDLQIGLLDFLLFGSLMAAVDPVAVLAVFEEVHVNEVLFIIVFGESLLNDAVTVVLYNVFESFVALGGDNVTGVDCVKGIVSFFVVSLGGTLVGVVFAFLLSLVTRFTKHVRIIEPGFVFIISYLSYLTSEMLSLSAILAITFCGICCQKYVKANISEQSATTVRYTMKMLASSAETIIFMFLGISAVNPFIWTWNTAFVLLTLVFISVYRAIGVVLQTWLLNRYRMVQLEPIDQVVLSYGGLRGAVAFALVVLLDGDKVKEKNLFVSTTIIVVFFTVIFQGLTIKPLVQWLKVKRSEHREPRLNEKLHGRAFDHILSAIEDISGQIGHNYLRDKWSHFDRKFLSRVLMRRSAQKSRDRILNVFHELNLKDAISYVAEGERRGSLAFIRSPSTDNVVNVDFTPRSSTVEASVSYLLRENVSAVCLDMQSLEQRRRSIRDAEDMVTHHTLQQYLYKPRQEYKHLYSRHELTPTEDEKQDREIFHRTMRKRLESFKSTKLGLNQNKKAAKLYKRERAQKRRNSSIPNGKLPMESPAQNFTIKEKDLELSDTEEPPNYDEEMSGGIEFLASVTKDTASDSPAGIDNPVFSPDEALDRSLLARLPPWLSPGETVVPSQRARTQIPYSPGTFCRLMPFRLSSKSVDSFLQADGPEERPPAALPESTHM
Format: cell-based

SMILES | inhibition at 10 µM [%] | IC50 [nM]
N#Cc1ccc(O[C@H]2c3ccccc3CC[C@@H]2N2CCC[C@H](N)C2)cc1F (racemic) [Example 530, 4-[rac-trans-(1,2)-2-((S)-3-aminopiperidin-1-yl)-1,2,3,4-tetrahydronaphthalen-1-yloxy]-2-fluorobenzonitrile] | 20 to 50 | –
N[C@@H]1CCCN([C@H]2Cc3c(Cl)cc(Cl)cc3[C@@H]2Oc2ccc(S(N)(=O)=O)c(Cl)c2Cl)C1 [Example 550, 4-[trans-(1S,2S)-2-((R)-3-aminopiperidin-1-yl)-4,6-dichloroindan-1-yloxy]-2,3-dichlorobenzenesulfonamide] | – | < 1000
N[C@@H]1CCCN([C@H]2CCc3ccccc3[C@@H]2Oc2cnc3ccccc3c2)C1 (racemic) [Example 87, (R)-1-[rac-trans-(1,2)-1-(quinolin-3-yloxy)-1,2,3,4-tetrahydronaphthalen-2-yl]piperidin-3-ylamine] | 20 to 50 | –
CS(=O)(=O)c1ccc(O[C@H]2c3ccccc3C[C@@H]2N2CCC[C@@H](NCCC(F)(F)F)C2)cc1 [Example 220, {(R)-1-[trans-(1S,2S)-1-(4-methanesulfonylphenoxy)indan-2-yl]piperidin-3-yl}-(3,3,3-trifluoropropyl)amine] | – | < 1000
CS(=O)(=O)c1ccc(N[C@H]2c3ccccc3C[C@@H]2N2CCCC2)cc1 [Example 707, (4-Methanesulfonyl-phenyl)-((1S,2S)-2-pyrrolidin-1-yl-indan-1-yl)-amine] | – | 1000 to 10000
N[C@@H]1CCCN([C@H]2CCc3ccccc3[C@@H]2Oc2ccc(-n3ccnc3)cc2)C1 (racemic) [Example 71, (R)-1-[rac-trans-(1,2)-1-(4-imidazol-1-ylphenoxy)-1,2,3,4-tetrahydronaphthalen-2-yl]piperidin-3-ylamine] | – | 1000 to 10000
CC1(C)NC(=O)N(c2ccc(Cl)c(O[C@H]3c4cc(Cl)cc(Cl)c4C[C@@H]3N3CC[C@@H](O)C3)c2)C1=O [Example 431, 3-{4-chloro-3-[(1S,2S)-4,6-dichloro-2-((R)-3-hydroxypyrrolidin-1-yl)indan-1-yloxy]phenyl}-5,5-dimethylimidazolidine-2,4-dione] | – | 1000 to 10000
N#Cc1ccc(O[C@H]2c3ccccc3CC[C@@H]2N2CCC[C@H](N)C2)cc1 (racemic) [Example 535, 4-[rac-trans-(1,2)-2-((S)-3-aminopiperidin-1-yl)-1,2,3,4-tetrahydronaphthalen-1-yloxy]benzonitrile] | – | 1000 to 10000
N#Cc1ccc(O[C@@H]2c3ccccc3C[C@H]2N2CCC(CN)CC2)c(Cl)c1 (racemic) [Example 547, 4-[rac-trans-(1,2)-2-(4-aminomethylpiperidin-1-yl)indan-1-yloxy]-3-chlorobenzonitrile] | – | 1000 to 10000
CS(=O)(=O)c1ccc(O[C@H]2c3ccccc3C[C@@H]2N2CCn3cnnc3C2)cc1 (racemic) [Example 590, 7-[rac-trans-(1,2)-1-(4-methanesulfonylphenoxy)indan-2-yl]-5,6,7,8-tetrahydro-[1,2,4]triazolo[4,3-a]pyrazine] | 20 to 50 | –
NCC1CCN([C@@H]2Cc3ccccc3[C@H]2Oc2ccc(N3CCNCC3)cc2)CC1 (racemic) [Example 619, C-{1-[rac-trans-(1,2)-1-(4-piperazin-1-ylphenoxy)indan-2-yl]piperidin-4-yl}methylamine] | – | 1000 to 10000
CC(=O)Nc1cccc(O[C@@H]2c3ccccc3C[C@H]2N2C[C@H]3CNC[C@H]3C2)c1 (racemic) [Example 674, N-{3-[rac-trans-(1,2)-2-(hexahydropyrrolo[3,4-c]pyrrol-2-yl)indan-1-yloxy]phenyl}acetamide] | – | 1000 to 10000
O=C1COC(=O)N1c1ccc(F)c(O[C@H]2c3cc(Cl)cc(Cl)c3C[C@@H]2N2CC[C@@H](O)C2)c1 [Example 418, 3-{3-[(1S,2S)-4,6-dichloro-2-((R)-3-hydroxypyrrolidin-1-yl)indan-1-yloxy]-4-fluorophenyl}oxazolidine-2,4-dione] | – | 1000 to 10000
Cc1nnc(C)n1-c1ccc(O[C@H]2c3ccccc3C[C@@H]2N2CCCC2)c(C(F)(F)F)c1 [Example 406, 3,5-dimethyl-4-[4-(trans-(1S,2S)-2-pyrrolidin-1-ylindan-1-yloxy)-3-trifluoromethylphenyl]-4H-[1,2,4]triazole] | – | < 1000
O=C1CCCN1c1ccc(Cl)c(O[C@H]2c3cc(Cl)cc(F)c3C[C@@H]2N2CC[C@@H](O)C2)c1 [Example 341, 1-{4-chloro-3-[(1S,2S)-6-chloro-4-fluoro-2-((R)-3-hydroxypyrrolidin-1-yl)indan-1-yloxy]phenyl}pyrrolidin-2-one] | – | < 1000
NC1CCN([C@@H]2Cc3ccccc3[C@H]2Oc2cccc(N3CCNCC3)c2)C1 (mixture of isomers) [Example 270, 1-[rac-trans-(1,2)-1-(3-piperazin-1-ylphenoxy)indan-2-yl]pyrrolidin-3-ylamine] | – | 1000 to 10000
Cn1ccn(-c2ccc(O[C@H]3c4cc(Cl)cc(Cl)c4C[C@@H]3N3CC[C@@H](O)C3)c(F)c2)c1=O [Example 329, 1-{4-[trans-(1S,2S)-4,6-dichloro-2-((R)-3-hydroxypyrrolidin-1-yl)indan-1-yloxy]-3-fluorophenyl}-3-methyl-1,3-dihydroimidazol-2-one] | – | < 1000
CN(C)S(=O)(=O)c1ccc(N[C@H]2c3cc(Cl)cc(Cl)c3C[C@@H]2N2CC[C@@H](O)C2)cc1 [Example 481, 4-[(1S,2S)-4,6-dichloro-2-((R)-3-hydroxypyrrolidin-1-yl)indan-1-ylamino]-N,N-dimethylbenzenesulfonamide] | – | 1000 to 10000
O=c1[nH]ccn1-c1ccc(O[C@H]2c3cc(Cl)cc(Cl)c3C[C@@H]2N2CC[C@@H](O)C2)c(F)c1 [Example 323, 1-{4-[(1S,2S)-4,6-dichloro-2-((R)-3-hydroxypyrrolidin-1-yl)indan-1-yloxy]-3-fluorophenyl}-1,3-dihydroimidazol-2-one] | – | < 1000
N#Cc1ccc(O[C@H]2c3ccccc3CC[C@@H]2N2CCC[C@H](N)C2)c([N+](=O)[O-])c1 (racemic) [Example 534, 4-[rac-trans-(1,2)-2-((S)-3-aminopiperidin-1-yl)-1,2,3,4-tetrahydronaphthalen-1-yloxy]-3-nitrobenzonitrile] | 20 to 50 | –
Cc1nnc(C)n1-c1ccc(O[C@H]2c3cc(Cl)cc(Cl)c3C[C@@H]2N2CCCN(C)CC2)cc1 [Example 349, 1-{trans-(1S,2S)-4,6-dichloro-1-[4-(3,5-dimethyl-[1,2,4]triazol-4-yl)phenoxy]indan-2-yl}-4-methyl-[1,4]diazepane] | – | < 1000
CC(=O)Nc1cccc(O[C@H]2c3ccccc3C[C@@H]2N2CCNCC2)c1 (racemic) [Example 639, N-[3-(rac-trans-(1,2)-2-piperazin-1-ylindan-1-yloxy)phenyl]acetamide] | 20 to 50 | –
COCCN1CCCN([C@H]2Cc3c(Cl)cc(Cl)cc3[C@@H]2Oc2ccc(-c3c(C)noc3C)cc2)CC1 [Example 350, 1-{trans-(1S,2S)-4,6-dichloro-1-[4-(3,5-dimethylisoxazol-4-yl)phenoxy]indan-2-yl}-4-(2-methoxyethyl)-[1,4]diazepane] | – | 1000 to 10000
c1ccc2c(c1)C[C@@H](N1C[C@H]3CNC[C@H]3C1)[C@@H]2Oc1ccc(N2CCNCC2)cc1 (racemic) [Example 17, 2-[rac-trans-(1,2)-1-(4-piperazin-1-ylphenoxy)indan-2-yl]octahydropyrrolo[3,4-c]pyrrole] | – | 1000 to 10000
O=C(O[C@H]1c2ccccc2C[C@@H]1N1CCCC1)c1ccc(N2C(=O)CCC2=O)cc1 [Example 458, 4-(2,5-dioxopyrrolidin-1-yl)benzoic acid (1S,2S)-2-pyrrolidin-1-ylindan-1-yl ester] | 20 to 50 | –
COc1cc(O[C@H]2c3ccccc3CC[C@@H]2N2CCC[C@H](N)C2)ccc1Br (racemic) [Example 173, (S)-1-[rac-trans-(1,2)-1-(4-bromo-3-methoxyphenoxy)-1,2,3,4-tetrahydronaphthalen-2-yl]piperidin-3-ylamine] | 20 to 50 | –
N#Cc1c(F)cccc1O[C@@H]1c2ccccc2C[C@H]1N1C[C@H]2CNC[C@H]2C1 (racemic) [Example 398, 2-fluoro-6-[rac-trans-(1,2)-2-(hexahydropyrrolo[3,4-c]pyrrol-2-yl)indan-1-yloxy]benzonitrile] | – | 1000 to 10000
CC(=O)Nc1cccc(O[C@H]2c3ccc(F)cc3C[C@@H]2N2CCCC2)c1 (racemic) [Example 656, N-[3-(rac-trans-(1,2)-5-fluoro-2-pyrrolidin-1-ylindan-1-yloxy)phenyl]acetamide] | – | 1000 to 10000
Clc1cnccc1O[C@H]1c2ccccc2C[C@@H]1N1CCCC1 (racemic) [Example 441, 3-chloro-4-(2-pyrrolidin-1-ylindan-1-yloxy)pyridine] | – | 1000 to 10000
Cc1ccc(O[C@@H]2c3ccccc3C[C@H]2N2CCC(CN)CC2)c(Br)c1 (racemic) [Example 603, C-{1-[rac-trans-(1,2)-1-(2-bromo-4-methylphenoxy)indan-2-yl]piperidin-4-yl}methylamine] | – | 1000 to 10000
